Experimental data from US7109193B2, “Tricyclic diazepines tocolytic oxytocin receptor antagonists” (Wyeth, priority 2001, dated 2006).

Biological target: T1, human oxytocin receptor (Homo sapiens, UniProt P30559)
T1 construct: host or cells: CHO cells (pcDNA3.1 vector)
T1 sequence (P30559 1-389): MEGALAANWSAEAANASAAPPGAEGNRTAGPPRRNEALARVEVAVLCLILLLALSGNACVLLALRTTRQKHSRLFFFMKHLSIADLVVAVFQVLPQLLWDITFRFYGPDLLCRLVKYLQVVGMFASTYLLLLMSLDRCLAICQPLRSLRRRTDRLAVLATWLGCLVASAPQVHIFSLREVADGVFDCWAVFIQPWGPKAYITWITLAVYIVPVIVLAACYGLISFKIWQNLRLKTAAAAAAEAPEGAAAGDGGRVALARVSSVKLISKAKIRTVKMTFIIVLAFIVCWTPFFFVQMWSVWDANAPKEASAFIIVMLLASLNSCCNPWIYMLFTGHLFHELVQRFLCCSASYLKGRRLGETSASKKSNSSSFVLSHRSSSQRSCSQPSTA
Assay: Oxytocin binding in Chinese Hamster Ovary cell membranes expressing human oxytocin receptors
Conditions: CHO cell membranes, [3H]oxytocin; for IC50: values in parentheses, read-out: OT (IC50); for inhibition at 0.1 µM: 100 nM, values without parentheses, read-out: OT % inhibition @ 100% nM

| SMILES | IC50 [nM] | inhibition at 0.1 µM [%] |
| --- | --- | --- |
| Cc1cc(C(=O)N2Cc3ccc(C(=O)N4CCC[C@H]4CN4CCCC4)n3Cc3ccccc32)ccc1-c1ccccc1C(F)(F)F [Example 258, (10-{[2-Methyl-2′-(trifluoromethyl)[1,1′-biphenyl]-4-yl]carbonyl}-10,11-dihydro-5H-pyrrolo[2,1-c][1,4]benzodiazepin-3-yl)[(2S)-2-(1-pyrrolidinylmethyl)pyrrolidinyl]methanone] | 2.85 | – |
| Cc1cc(C(=O)N2Cc3ccc(C(=O)N4CCCN(C)CC4)n3Cc3ccccc32)ccc1-c1ccccc1C(F)(F)F [Example 59, (4-Methyl-1,4-diazepan-1-yl)(10-{[2-methyl-2′-(trifluoromethyl)[1,1′-biphenyl]-4-yl]carbonyl}-10,11-dihydro-5H-pyrrolo[2,1-c][1,4]benzodiazepin-3-yl)methanone] | 16.4 | – |
| C=CCN1CCN(C(=O)c2ccc3n2Cc2ccccc2N(C(=O)c2cc(Cl)c(-c4ccccc4C)cc2OC)C3)CC1 [Example 219, (4-Allyl-1-piperazinyl){10-[(6-chloro-3-methoxy-2′-methyl[1,1′-biphenyl]-4-yl)carbonyl]-10,11-dihydro-5H-pyrrolo[2,1-c][1,4]benzodiazepin-3-yl}methanone] | 12.1 | – |
| Cc1cc(C(=O)N2Cc3ccc(C(=O)N(C)CCN(C)C)n3Cc3ccccc32)ccc1-c1ccccc1C(F)(F)F [Example 85, N-[2-(Dimethylamino)ethyl]-N-methyl-10-{[2-methyl-2′-(trifluoromethyl)[1,1′-biphenyl]-4-yl]carbonyl}-10,11-dihydro-5H-pyrrolo[2,1-c][1,4]benzodiazepine-3-carboxamide] | 3.02 | – |
| Cc1ccccc1-c1ccc(C(=O)N2Cc3ccc(C(=O)N(C)CCCN(C)C)n3Cc3ccccc32)cc1C [Example 101, N-[3-(Dimethylamino)propyl]-10-[(2,2′-dimethyl[1,1′-biphenyl]-4-yl)carbonyl]-N-methyl-10,11-dihydro-5H-pyrrolo[2,1-c][1,4]benzodiazepine-3-carboxamide] | – | 100 |
| COc1ccccc1-c1ccc(C(=O)N2Cc3ccc(C(=O)N4CCN(CCN5CCOCC5)CC4)n3Cc3ccccc32)cc1 [Example 207, {10-[(2′-Methoxy[1,1′-biphenyl]-4-yl)carbonyl]-10,11-dihydro-5H-pyrrolo[2,1-c][1,4]benzodiazepin-3-yl}{4-[2-(4-morpholinyl)ethyl]-1-piperazinyl}methanone] | 9.5 | – |
| COc1cc(-c2ccccc2C)c(Cl)cc1C(=O)N1Cc2ccc(C(=O)N(C)CCCN(C)C)n2Cc2ccccc21 [Example 98, 10-[(6-Chloro-3-methoxy-2′-methyl[1,1′-biphenyl]-4-yl)carbonyl]-N-[3-(dimethylamino)propyl]-N-methyl-10,11-dihydro-5H-pyrrolo[2,1-c][1,4]benzodiazepine-3-carboxamide] | 2.48 | – |
| COc1cc(-c2ccccc2C)c(Cl)cc1C(=O)N1Cc2ccc(C(=O)N3CCN(C)CC3)n2Cc2ccccc21 [Example 47, {10-[(6-Chloro-3-methoxy-2′-methyl[1,1′-biphenyl]-4-yl)carbonyl]-10,11-dihydro-5H-pyrrolo[2,1-c][1,4]benzodiazepin-3-yl}(4-methyl-1-piperazinyl)methanone] | 6.61 | – |
| C=CCN1CCN(C(=O)c2ccc3n2Cc2ccccc2N(C(=O)c2ccc(-c4ccccc4C)c(C)c2)C3)CC1 [Example 220, (4-Allyl-1-piperazinyl){10-[(2,2′-dimethyl[1,1′-biphenyl]-4-yl)carbonyl]-10,11-dihydro-5H -pyrrolo[2,1-c][1,4]benzodiazepin-3-yl}methanone] | 7.2 | – |
| CN(C)CCCNC(=O)c1ccc2n1Cc1ccccc1N(C(=O)c1ccc(-c3cccc4ccccc34)cc1Cl)C2 [Example 83, 10-[2-Chloro-4-(1-naphthyl)benzoyl]-N-[3-(dimethylamino)propyl]-10,11-dihydro-5H-pyrrolo[2,1-c][1,4]benzodiazepine-3-carboxamide] | – | 10 |
